Laboratory results published in ChEMBL document CHEMBL5390204, “Persephacin Is a Broad-Spectrum Antifungal Aureobasidin Metabolite That Overcomes Intrinsic Resistance in Aspergillus fumigatus” (J Nat Prod, 2023).
The source made the active and inactive calls. The calls are words filed in the database; no cut-off is given here.

Key:
Type in all cases: functional, organism-based
Conditions in all cases: time 4.0 day
Candida albicans [1] = experiment: Antifungal activity against Candida albicans SC5314 infected in pig cornea assessed as suppression of fungal growth at 5 % administered post fungal infection measured after 4 days by microscopic analysis
Candida albicans [2] = experiment: Antifungal activity against fluconazole-resistant Candida albicans SC5314 infected in pig cornea assessed as suppression of fungal growth at 5 % administered post fungal infection measured after 4 days by microscopic analysis
Aspergillus fumigatus [3] = experiment: Antifungal activity against Aspergillus fumigatus NRRL5109 infected in pig cornea assessed as suppression of fungal growth at 5 % administered post fungal infection measured after 4 days by microscopic analysis
Candida albicans [4] = experiment: Antifungal activity against fluconazole-resistant Candida albicans SC5314 infected in pig cornea assessed as suppression of fungal growth at 2 % administered post fungal infection measured after 4 days by microscopic analysis
Aspergillus fumigatus [5] = experiment: Antifungal activity against Aspergillus fumigatus NRRL5109 infected in pig cornea assessed as suppression of fungal growth at 2 % administered post fungal infection measured after 4 days by microscopic analysis

Compound	Activity (Candida albicans [1])	Activity (Candida albicans [2])	Activity (Aspergillus fumigatus [3])	Activity (Candida albicans [4])	Activity (Aspergillus fumigatus [5])
C[C@@H]1C/C=C/C=C/C=C/C=C/[C@H](O[C@@H]2O[C@H](C)[C@@H](O)[C@H](N)[C@@H]2O)C[C@@H]2O[C@](O)(C[C@@H](O)C[C@H]3O[C@@H]3/C=C/C(=O)O1)C[C@H](O)[C@H]2C(=O)O	Active	Active	Active	–	–
OC(Cn1cncn1)(Cn1cncn1)c1ccc(F)cc1F	–	–	–	inactive	inactive
